Read-outs that look alike come from different tables or passages of the source.
Experiments:
[1] = tested on: recombinant NL4-3 virus (nef section replaced with Renilla luciferase gene) in MT-2 cells; test: HIV cell culture assay (antiviral activity, luciferase readout); format: cell-based; conditions: Renilla, NL43, MT-2 cells infected for 4-5 days with recombinant NL4-3 Renilla luciferase virus
In short: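 Read-out: Renilla luciferase (live-cell substrate) in infected MT-2 cells after 4-5 d with serial compound dilutions. Virus from 293T transfection of the proviral clone, titered by luciferase in MT-2. EC50 via median effect equation fit.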

[2] = Compound cytotoxicity, XTT-based colorimetric assay; format: cell-based; conditions: human
In short: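 Follows the antiviral assay procedure, but with uninfected MT2 cells. On day 4, cell viability is measured by XTT-based colorimetry, giving CC50 values.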

[3] = uninfected MT2 cells, day 4, XTT, read-out: CC50

CC(C)[C@H]1CN(CCn2nc(NS(C)(=O)=O)c3c(Cl)ccc(-n4c([C@H](Cc5cc(F)cc(F)c5)NC(=O)Cn5nc(C6CC6)c6c5C[C@@H]5C[C@H]65)nc5nc(C6CCC(F)(F)CC6)ccc5c4=O)c32)CCO1 (atropisomer, axis not shown; (P)) [Example 434, N-[(1S)-1-[(3P)-3-(4-chloro-3-methanesulfonamido-1-{2-[(2S)-2-(propan-2-yl)morpholin-4-yl]ethyl}-1H-indazol-7-yl)-7-(4,4-difluorocyclohexyl)-4-oxo-3H,4H-pyrido[2,3-d]pyrimidin-2-yl]-2-(3,5-difluorophenyl)ethyl]-2-[(2S,4S)-9-cyclopropyl-7,8-diazatricyclo[4.3.0.0^2,^4]nona-1(6),8-dien-7-yl]acetamide]
EC50 [1]: 0.01 nM
CC50 at 4 days [2, 3]: > 20 nM

Cc1cc(C2CCC(F)(F)CC2)nc2nc([C@H](Cc3cc(F)cc(F)c3)NC(=O)Cn3nc(C4CC4)c4c3C[C@@H]3C[C@H]43)n(-c3ccc(Cl)c4c(NS(C)(=O)=O)nn(CCN5C[C@H]6CC[C@@H](C5)O6)c34)c(=O)c12 (atropisomer, axis not shown; (P)) [Example 4, N-[(1S)-1-[(3P)-3-(4-chloro-3-methanesulfonamido-1-{2-[(1R,5S)-8-oxa-3-azabicyclo[3.2.1]octan-3-yl]ethyl}-1H-indazol-7-yl)-7-(4,4-difluorocyclohexyl)-5-methyl-4-oxo-3H,4H-pyrido[2,3-d]pyrimidin-2-yl]-2-(3,5-difluorophenyl)ethyl]-2-[(2S,4S)-9-cyclopropyl-7,8-diazatricyclo[4.3.0.0^2,^4]nona-1(6),8-dien-7-yl]acetamide]
EC50 [1]: 0.007 nM
CC50 at 4 days [2, 3]: > 50 nM

COCCCn1nc(NS(C)(=O)=O)c2c(Cl)ccc(-n3c([C@H](Cc4cc(F)cc(F)c4)NC(=O)Cn4nc(C(F)F)c5c4C(F)(F)[C@@H]4C[C@H]54)nc4nc(C5CCC(F)(F)CC5)cc(NCCN5C[C@H](F)C[C@H](F)C5)c4c3=O)c21 (atropisomer, axis not shown; (P)) [Example 509, N-[(1S)-1-[(3P)-3-[4-chloro-3-methanesulfonamido-1-(3-methoxypropyl)-1H-indazol-7-yl]-7-(4,4-difluorocyclohexyl)-5-({2-[(3R,5S)-3,5-difluoropiperidin-1-yl]ethyl}amino)-4-oxo-3H,4H-pyrido[2,3-d]pyrimidin-2-yl]-2-(3,5-difluorophenyl)ethyl]-2-[(2S,4R)-9-(difluoromethyl)-5,5-difluoro-7,8-diazatricyclo[4.3.0.0^2,^4]nona-1(6),8-dien-7-yl]acetamide]
EC50 [1]: 0.006 nM
CC50 at 4 days [2, 3]: > 20 nM

Cc1cc(C2CCC(F)(F)CC2)nc2nc([C@H](Cc3cc(F)cc(F)c3)NC(=O)Cn3nc(C4CC4)c4c3C[C@@H]3C[C@H]43)n(-c3ccc(Cl)c4c(NS(C)(=O)=O)nn(CCN5CC(C(F)F)C5)c34)c(=O)c12 (atropisomer, axis not shown; (P)) [Example 275]
EC50 [1]: 0.012 nM
CC50 at 4 days [2, 3]: > 50 nM

COCCCn1nc(NS(C)(=O)=O)c2c(Cl)ccc(-n3c([C@H](Cc4cc(F)cc(F)c4)NC(=O)Cn4nc(C(F)F)c5c4C(F)(F)[C@@H]4C[C@H]54)nc4nc(C5CCC(F)(F)CC5)cc(NCCC5CCCCO5)c4c3=O)c21 (stereo partly drawn) [Example 563, N-[(1S)-1-[(3P)-3-[4-chloro-3-methanesulfonamido-1-(3-methoxypropyl)-1H-indazol-7-yl]-7-(4,4-difluorocyclohexyl)-5-{[2-(oxan-2-yl)ethyl]amino}-4-oxo-3H,4H-pyrido[2,3-d]pyrimidin-2-yl]-2-(3,5-difluorophenyl)ethyl]-2-[(2S,4R)-9-(difluoromethyl)-5,5-difluoro-7,8-diazatricyclo[4.3.0.0^2,^4]nona-1(6),8-dien-7-yl]acetamide]
EC50 [1]: 0.019 nM
CC50 at 4 days [2, 3]: > 20 nM

Cc1cc(C2CCC(F)(F)CC2)nc2nc([C@H](Cc3cc(F)cc(F)c3)NC(=O)Cn3nc(C4CC4)c4c3C[C@@H]3C[C@H]43)n(-c3ccc(Cl)c4c(NS(C)(=O)=O)nn(CCN5C[C@@H](F)[C@@H](F)C5)c34)c(=O)c12 (atropisomer, axis not shown; (P)) [Example 281, N-[(1S)-1-[(3P)-3-(4-chloro-1-{2-[(3R,4S)-3,4-difluoropyrrolidin-1-yl]ethyl}-3-methanesulfonamido-1H-indazol-7-yl)-7-(4,4-difluorocyclohexyl)-5-methyl-4-oxo-3H,4H-pyrido[2,3-d]pyrimidin-2-yl]-2-(3,5-difluorophenyl)ethyl]-2-[(2S,4S)-9-cyclopropyl-7,8-diazatricyclo[4.3.0.0^2,^4]nona-1(6),8-dien-7-yl]acetamide]
EC50 [1]: 0.011 nM
CC50 at 4 days [2, 3]: > 50 nM

CS(=O)(=O)Nc1nn(CCN2[C@@H]3CC[C@H]2COC3)c2c(-n3c([C@H](Cc4cc(F)cc(F)c4)NC(=O)Cn4nc(C5CC5)c5c4C[C@@H]4C[C@H]54)nc4nc(C5CCC(F)(F)CC5)cc(C(F)F)c4c3=O)ccc(Cl)c12 (atropisomer, axis not shown; (P)) [Example 289, N-[(1S)-1-[(3P)-3-(4-chloro-3-methanesulfonamido-1-{2-[(1R,5S)-3-oxa-8-azabicyclo[3.2.1]octan-8-yl]ethyl}-1H-indazol-7-yl)-7-(4,4-difluorocyclohexyl)-5-(difluoromethyl)-4-oxo-3H,4H-pyrido[2,3-d]pyrimidin-2-yl]-2-(3,5-difluorophenyl)ethyl]-2-[(2S,4S)-9-cyclopropyl-7,8-diazatricyclo[4.3.0.0^2,^4]nona-1(6),8-dien-7-yl]acetamide]
EC50 [1]: 0.025 nM
CC50 at 4 days [2]: > 50 nM

COCCCn1nc(NS(C)(=O)=O)c2c(Cl)ccc(-n3c([C@H](Cc4cc(F)cc(F)c4)NC(=O)Cn4nc(C(F)F)c5c4C(F)(F)[C@@H]4C[C@H]54)nc4nc(C5CCC(F)(F)CC5)cc(NCCN5CCC(C)(C)CC5)c4c3=O)c21 (atropisomer, axis not shown; (P)) [Example 523, N-[(1S)-1-[(3P)-3-[4-chloro-3-methanesulfonamido-1-(3-methoxypropyl)-1H-indazol-7-yl]-7-(4,4-difluorocyclohexyl)-5-{[2-(4,4-dimethylpiperidin-1-yl)ethyl]amino}-4-oxo-3H,4H-pyrido[2,3-d]pyrimidin-2-yl]-2-(3,5-difluorophenyl)ethyl]-2-[(2S,4R)-9-(difluoromethyl)-5,5-difluoro-7,8-diazatricyclo[4.3.0.0^2,^4]nona-1(6),8-dien-7-yl]acetamide]
EC50 [1]: 0.012 nM
CC50 at 4 days [2, 3]: > 20 nM

Cc1cc(C2CCC(F)(F)CC2)nc2nc([C@H](Cc3cc(F)cc(F)c3)NC(=O)Cn3nc(C4CC4)c4c3C[C@@H]3C[C@H]43)n(-c3ccc(Cl)c4c(NS(C)(=O)=O)nn(CCN5CC(F)(F)C5)c34)c(=O)c12 (atropisomer, axis not shown; (P)) [Example 283, N-[(1S)-1-[(3P)-3-{4-chloro-1-[2-(3,3-difluoroazetidin-1-yl)ethyl]-3-methanesulfonamido-1H-indazol-7-yl}-7-(4,4-difluorocyclohexyl)-5-methyl-4-oxo-3H,4H-pyrido[2,3-d]pyrimidin-2-yl]-2-(3,5-difluorophenyl)ethyl]-2-[(2S,4S)-9-cyclopropyl-7,8-diazatricyclo[4.3.0.0^2,^4]nona-1(6),8-dien-7-yl]acetamide]
EC50 [1]: 0.008 nM
CC50 at 4 days [2, 3]: > 50 nM

CS(=O)(=O)Nc1nn(CCN2CCCC(F)(F)C2)c2c(-n3c([C@H](Cc4cc(F)cc(F)c4)NC(=O)Cn4nc(C(F)F)c5c4C(F)(F)[C@@H]4C[C@H]54)nc4nc(C5CCC(F)(F)CC5)ccc4c3=O)ccc(Cl)c12 (atropisomer, axis not shown; (P)) [Example 168, N-[(1S)-1-[(3P)-3-{4-chloro-1-[2-(3,3-difluoropiperidin-1-yl)ethyl]-3-methanesulfonamido-1H-indazol-7-yl}-7-(4,4-difluorocyclohexyl)-4-oxo-3H,4H-pyrido[2,3-d]pyrimidin-2-yl]-2-(3,5-difluorophenyl)ethyl]-2-[(2S,4R)-9-(difluoromethyl)-5,5-difluoro-7,8-diazatricyclo[4.3.0.0^2,^4]nona-1(6),8-dien-7-yl]acetamide]
EC50 [1]: 0.018 nM
CC50 at 4 days [2, 3]: > 50 nM

CCc1cc(C2CCC(F)(F)CC2)nc2nc([C@H](Cc3cc(F)cc(F)c3)NC(=O)Cn3nc(C(F)F)c4c3C[C@H]3C[C@@H]43)n(-c3ccc(Cl)c4c(NS(C)(=O)=O)nn(CCCOC)c34)c(=O)c12 (relative stereo) [Example 643, N-[(1S)-1-[(3P)-3-[4-chloro-3-methanesulfonamido-1-(3-methoxypropyl)-1H-indazol-7-yl]-7-(4,4-difluorocyclohexyl)-5-ethyl-4-oxo-3H,4H-pyrido[2,3-d]pyrimidin-2-yl]-2-(3,5-difluorophenyl)ethyl]-2-[(2R*,4R*)-9-(difluoromethyl)-7,8-diazatricyclo[4.3.0.0^2,^4]nona-1(6),8-dien-7-yl]acetamide]
EC50 [1]: 0.017 nM
CC50 at 4 days [2, 3]: > 50 nM

Cc1cc(C2CCC(F)(F)CC2)nc2nc([C@H](Cc3cc(F)cc(F)c3)NC(=O)Cn3nc(C4CC4)c4c3C[C@@H]3C[C@H]43)n(-c3ccc(Cl)c4c(NS(C)(=O)=O)nn(CC(=O)N5C[C@@H](C)O[C@@H](C)C5)c34)c(=O)c12 (atropisomer, axis not shown; (P)) [Example 384, N-[(1S)-1-[(3P)-3-(4-chloro-1-{2-[(2R,6S)-2,6-dimethylmorpholin-4-yl]-2-oxoethyl}-3-methanesulfonamido-1H-indazol-7-yl)-7-(4,4-difluorocyclohexyl)-5-methyl-4-oxo-3H,4H-pyrido[2,3-d]pyrimidin-2-yl]-2-(3,5-difluorophenyl)ethyl]-2-[(2S,4S)-9-cyclopropyl-7,8-diazatricyclo[4.3.0.0^2,^4]nona-1(6),8-dien-7-yl]acetamide]
EC50 [1]: 0.025 nM
CC50 at 4 days [2, 3]: > 20 nM
